These results are taken from patent US20190388389A1, “METHODS AND COMPOSITIONS OF CARNOSOL FOR INHIBITING UVB-INDUCED SKIN DAMAGE” (Ohio University, priority 2017, published 2019).

One data set deals with HaCaT cells. Put plainly: Cell survival analysis (Annexin V/PI flow cytometry), HaCaT. It is filed as cell-based. How it is done: FIGS. 6A-6C: Carnosol protects UVB-induced cell death. Cells were exposed to UVB radiation with different dose of carnosol treatment. At indicated time point, cells were collected and Annexin V/PI apoptosis detection kit was used to detect cell apoptosis. (FIG. 6A) HaCaT cell survival rate with different concentrations (μM) of carnosol treatment at 12 h post UVB radiation. (FIG. 6B) Time dependent assay (h) in the presence or absence of carnosol treatment in HaCaT cells. (FIG. 6C) MEF cells treated with 20 μM carnosol at indicated time point (h). The error bars present the standard deviation of three sets of independent experiments. *p<0.05 versus control group; **p<0.05 versus corresponded UV group.
(§1) UVB was generated from a Bench XX-Series UV Lamp (UVP Inc.) equipped with two 15-watt UVB tubes (UVP Inc.). The intensity of UVB was calibrated by a UVP model UVX digital radiometer (UVP Inc.) after the lamps warmed up for 5 min. For irradiating cells, the dose rate for 8 mJ/cm^2 or 50 mJ/cm^2 of UVB radiation was 0.8 or 3.8 mW/s respectively. Medium was removed before exposing the cells to UVB. After UVB radiation, fresh medium was added to the culture plates with or without drugs, and the cells were continue incubating at 37° C. with 5% CO2 until further analysis. Carnosol was disovled in DMSO and was irradiated with 50 mJ/cm^2 of UVB radiation at a dose rate of 3.8 mW/s before subjecting to cells or structure analysis using Mass Spectrum.
Carnosol (Cayman) (FIG. 1) was added to cells at indicated concentration at 1 h before exposing the cells to UVB radiation. After radiation, cells were continuously incubated with or without carnosol in the medium until further analysis.
Total cell number of 1×10^5 was used for each analysis using flow cytometer. Fluorescein isothiocyanate (FITC) conjugated-annexin V (ANXS)/propidium iodide (PI) apoptosis detection kit (BD Biosciences) were used to stain the cells through the determination of the loss of membrane phospholipid […] and membrane integrity. Cell survival rate (R) was calculated as: R=[1×10^5−number of positive stained cells]/1×10^5. Briefly, the cells were harvested by 0.25% trypsin digestion, combined with the cells floating in the medium and washed twice with cold PBS. The cells were then suspended in ANXS binding buffer (10 mM Hepes/NaOH, pH 7.4, 140 mM NaCl and 2.5 mM CaCl2). The cell suspension was mixed with 5 μL ANXS-FITC and 5 μL PI. The cell mixture was incubated for […] in dark at room temperature and the ANXS/PI double-stained cells were analyzed using a FACSort Flow Cytometer (BD Science) equipped with CellQuest software (BD Science).
(In flow cytometry, cells or beads pass a laser one at a time.)

The next data set has as its system IκB. Put plainly: Western blot for IκB protein level, MEF cells. The conditions noted are these: 20 μM carnosol, 6 h post UVB. It is filed as cell-based, mouse. Here is the method:
FIGS. 7A-7F: Carnosol inhibited UVB-induced NF-κB activation. Cells were exposed to UVB radiation in the presence or absence of carnosol. Cells were lysed at indicated time point and protein levels were measured by western blot analysis. (FIG. 7A) Western blot for IκB protein level in HaCaT cells at 2, 4 h post UVB radiation at 1, 10 or 20 μM carnosol treatment. (FIG. 7B) Western blot analysis for IκB protein level in HaCaT cells at 6 h post UVB radiation in the presence or absence of carnosol. (FIG. 7C) Western blot analysis for IκB protein level in MEF cells at 6 h post UVB radiation in the presence or absence of carnosol. (FIG. 7D) Western blot for 5276 site phosphorylation of NF-κB in HaCaT cells at 6 h post UVB with indicated carnosol concentration. (FIG. 7E) EMSA assay for HaCaT cells at 2, 4, 6 h post UVB radiation in the presence or absence of carnosol (20 μM). (FIG. 7F) Statistical analysis of the EMSA assay using two to three sets of independent experiments. *p<0.05 versus control group, **p<0.05 versus UV group at indicated time point.
Cells were lysed with Nonidet P-40 (NP-40) lysis buffer (2% NP-40, 80 mM NaCl, 100 mM Tris-HCl pH 8.0, 0.1% SDS) with proteinase inhibitor mixture (Complete™, Roche Molecular Biochemicals) at indicated time point. […] Protein concentration was measured by Protein DC Assay kit (Bio-Rad Laboratories). […]
On the technique in general: In western blotting, separated proteins are transferred to a membrane and probed.

Data set [1] has as its system γH2AX (phosphorylated H2AX). Put plainly: Western blot of DNA damage marker, HaCaT cells. It is filed as cell-based, Human. The note with it: 15 min and 1 h post UVB 50 mJ/cm^2. How it is done: (§2) FIGS. 5A-5B: Carnosol protects UVB-induced DNA damage. (FIG. 5A) HaCaT cells and (FIG. 5B) MEF cells were exposed to 50 mJ/cm^2 UVB radiation in the presence or absence of carnosol. Cells were lysed at indicated time point and protein levels of phosphorylated H2AX and Chk were measured. The data represents three sets of independent experiments.
(§3) Cells were lysed with Nonidet P-40 (NP-40) lysis buffer (2% NP-40, 80 mM NaCl, 100 mM Tris-HCl pH 8.0, 0.1% SDS) with proteinase inhibitor mixture (Complete™, Roche Molecular Biochemicals) at indicated time point. Cell lysate was incubated on ice for 15 min and then centrifuged at 14,000 rpm at 4° C. for 15 min. Protein concentration was measured by Protein DC Assay kit (Bio-Rad Laboratories). Equal amounts of protein were subjected on SDS-PAGE and transferred to a nitrocellulose membrane. The membrane was then blocked in 5% milk in Tris buffered saline plus Tween 20 ® (TBST) for 45 min and probed with anti-yH2AX (Cell Signaling), anti-pCHK (Cell Signaling), anti-p276-NF-κB (Santa Cruz), anti-NF-κB p65 (Santa Cruz), anti-IκB (Santa Cruz), or anti-β-actin (Santa Cruz) at 4° C. overnight. After washing with TBST, the membrane was incubated with corresponding HRP-conjugated anti-rabbit or anti-mouse antibody for 45 min at room temperature. […]

Another data set concerns phosphor-Chk. Description: Western blot of DNA damage marker, HaCaT cells. It is filed as cell-based, Human. The conditions noted are these: 15 min and 1 h post UVB 50 mJ/cm^2. How it is done: as §2, §3
The next data set deals with normal skin cells. Description: Cell viability with carnosol or its UVB-decomposed molecules (FIG. 12). Type of data set: cell-based. The note with it: within 12 h after treatment. How it is done: FIG. 12. The effect of carnosol or its decomposed molecules on cell viability. Cell viability assay of carnosol and its UVB-decomposed molecules on normal skin cells in a time dependent manner (6, 12, and 24 h after UVB radiation).
as §1

`CC(C)c1cc2c(c(O)c1O)[C@@]13CCCC(C)(C)[C@@H]1C[C@@H]2OC3=O` [carnosol]: the “cell survival with UVB radiation” value in the data set on HaCaT cells (1 μM carnosol, 12 h post UVB) is “no statistically significant effect”; with HaCaT cells (10 μM carnosol, 12 h post UVB), “no statistically significant effect”. The “toxicity to the cells without UVB radiation” value in the data set on HaCaT cells (30 μM carnosol) was “limited toxicity”. The cell survival entry with HaCaT cells (carnosol alone 1-30 μM, no UVB, 12 h) is listed as “no significant cell survival change”. For the same molecule, the cell survival rate is on record as 30% with HaCaT cells (dose assay, 20 μM carnosol, 12 h post UVB, UVB alone 20%); “no further increasing” in the data set with HaCaT cells (dose assay, 30 μM carnosol, 12 h post UVB, vs 20 μM); “no significance” with HaCaT cells (time assay, 20 μM carnosol, 6 h post UVB); 40% in the data set on HaCaT cells (time assay, 20 μM carnosol, 12 h post UVB, UVB alone 30%); 15% in the data set with HaCaT cells (time assay, 20 μM carnosol, 24 h post UVB, UVB alone 7%). Besides, the IκB protein level entry in the data set with IκB is listed as “partial recovery of IκB level”. Besides, in data set [1], the “phosphorylation level of H2AX” value was “significantly reduced”. Besides, in the data set with phosphor-Chk, the “phosphorylation level of Chk” value was “significantly reduced”. The “protection of cell damage from UVB radiation (viability)” value with normal skin cells was “can protect cell damage from UVB radiation in short term”.
